Data as given in patent US20250049748A1, “ANALOGS OF 4-BROMO-2,5-DIMETHOXYPHENETHYLAMINE” (Terran Biosciences Inc., priority 2021, published 2025).

Assay: Pharmacokinetic study in rats: plasma 2C-B after IV/PO 2C-B or PO 2C-B prodrugs
[1] = prodrug oral 10 mg/kg, male SD rats, time 0.500 h, individual animals
[2] = prodrug oral 10 mg/kg, male SD rats, time 0.500 h, mean
[3] = prodrug oral 10 mg/kg, male SD rats, time 1.00 h, individual animals
[4] = prodrug oral 10 mg/kg, male SD rats, time 1.00 h, mean
[5] = prodrug oral 10 mg/kg, male SD rats, time 2.00 h, individual animals
[6] = prodrug oral 10 mg/kg, male SD rats, time 2.00 h, mean
[7] = prodrug oral 10 mg/kg, male SD rats, time 4.00 h, individual animals
[8] = prodrug oral 10 mg/kg, male SD rats, time 4.00 h, mean
[9] = prodrug oral 10 mg/kg, male SD rats, time 7.00 h, individual animals
[10] = prodrug oral 10 mg/kg, male SD rats, time 7.00 h, mean
[11] = prodrug oral 10 mg/kg, male SD rats, time 24.0 h, individual animals
[12] = prodrug oral 10 mg/kg, male SD rats, time 24.0 h, mean
[13] = oral dosing of 2C-B prodrug, rat, time 0.500 h, individual animal
[14] = oral dosing of 2C-B prodrug, rat, time 0.500 h, mean
[15] = oral dosing of 2C-B prodrug, rat, time 1.00 h, individual animal
[16] = oral dosing of 2C-B prodrug, rat, time 1.00 h, mean
[17] = oral dosing of 2C-B prodrug, rat, time 2.00 h, individual animal
[18] = oral dosing of 2C-B prodrug, rat, time 2.00 h, mean
[19] = oral dosing of 2C-B prodrug, rat, time 4.00 h, individual animal
[20] = oral dosing of 2C-B prodrug, rat, time 4.00 h, mean
[21] = oral dosing of 2C-B prodrug, rat, time 7.00 h, individual animal
[22] = oral dosing of 2C-B prodrug, rat, time 7.00 h, mean
[23] = oral dosing of 2C-B prodrug, rat, time 24.0 h, individual animal
[24] = oral dosing of 2C-B prodrug, rat, time 24.0 h, mean

Q: What does the source list for `COc1cc(CCN(C(=O)OC(C)(C)C)C(=O)OC(C)(C)C)c(OC)cc1Br` [Example 12, tert-butyl (4-bromo-2,5-dimethoxyphenethyl)(tert-butoxycarbonyl) carbamate]?
A: Plasma Concentrations of metabolite 2C-B Following Oral Dosing [1]: BLQ (BLQ: Below Lower Limit of Quanification (0.5 ng/mL)); Plasma Concentrations of metabolite 2C-B Following Oral Dosing [2]: BLQ (BLQ: Below Lower Limit of Quanification (0.5 ng/mL)); Plasma Concentrations of metabolite 2C-B Following Oral Dosing [3]: BLQ (BLQ: Below Lower Limit of Quanification (0.5 ng/mL)); Plasma Concentrations of metabolite 2C-B Following Oral Dosing [4]: BLQ (BLQ: Below Lower Limit of Quanification (0.5 ng/mL)); Plasma Concentrations of metabolite 2C-B Following Oral Dosing [5]: BLQ (BLQ: Below Lower Limit of Quanification (0.5 ng/mL)); Plasma Concentrations of metabolite 2C-B Following Oral Dosing [6]: BLQ (BLQ: Below Lower Limit of Quanification (0.5 ng/mL)); Plasma Concentrations of metabolite 2C-B Following Oral Dosing [7]: BLQ (BLQ: Below Lower Limit of Quanification (0.5 ng/mL)); Plasma Concentrations of metabolite 2C-B Following Oral Dosing [8]: BLQ (BLQ: Below Lower Limit of Quanification (0.5 ng/mL)); Plasma Concentrations of metabolite 2C-B Following Oral Dosing [9]: BLQ (BLQ: Below Lower Limit of Quanification (0.5 ng/mL)); Plasma Concentrations of metabolite 2C-B Following Oral Dosing [10]: BLQ (BLQ: Below Lower Limit of Quanification (0.5 ng/mL)); Plasma Concentrations of metabolite 2C-B Following Oral Dosing [11]: BLQ (BLQ: Below Lower Limit of Quanification (0.5 ng/mL)); Plasma Concentrations of metabolite 2C-B Following Oral Dosing [12]: BLQ (BLQ: Below Lower Limit of Quanification (0.5 ng/mL))

Q: With `COc1cc(CCN2C(=O)C(C)=C(C)C2=O)c(OC)cc1Br` [Example 21-B, 1-(4-bromo-2,5-dimethoxyphenethyl)-3,4-dim ethyl-1H-pyrrole-2,5-dione] as the molecule, how does the “Plasma Concentrations of metabolite 2C-B Following Oral Dosing” value (“Plasma Concentrations” below) [1] read?
A: The value was “BLQ (BLQ: Below Lower Limit of Quanification (0.5 ng/mL))”.

Q: And the “Plasma Concentrations” value [2]?
A: The value was “BLQ (BLQ: Below Lower Limit of Quanification (0.5 ng/mL))”.

Q: What about the “Plasma Concentrations” value [3] of the same molecule?
A: The value was “BLQ (BLQ: Below Lower Limit of Quanification (0.5 ng/mL))”.

Q: What about the “Plasma Concentrations” value [4] of the same molecule?
A: The value was “BLQ (BLQ: Below Lower Limit of Quanification (0.5 ng/mL))”.

Q: And the “Plasma Concentrations” value [5]?
A: The value was “BLQ (BLQ: Below Lower Limit of Quanification (0.5 ng/mL))”.

Q: What about the “Plasma Concentrations” value [6] of the same molecule?
A: Its value is “BLQ (BLQ: Below Lower Limit of Quanification (0.5 ng/mL))”.

Q: What about the “Plasma Concentrations” value [7] of the same molecule?
A: The value was “BLQ (BLQ: Below Lower Limit of Quanification (0.5 ng/mL))”.

Q: What about the “Plasma Concentrations” value [8] of the same molecule?
A: Its value is “BLQ (BLQ: Below Lower Limit of Quanification (0.5 ng/mL))”.

Q: And the “Plasma Concentrations” value [9]?
A: Its value is “BLQ (BLQ: Below Lower Limit of Quanification (0.5 ng/mL))”.

Q: And the “Plasma Concentrations” value [10]?
A: Its value is “BLQ (BLQ: Below Lower Limit of Quanification (0.5 ng/mL))”.

Q: What about the “Plasma Concentrations” value [11] of the same molecule?
A: Its value is “BLQ (BLQ: Below Lower Limit of Quanification (0.5 ng/mL))”.

Q: What about the “Plasma Concentrations” value [12] of the same molecule?
A: Its value is “BLQ (BLQ: Below Lower Limit of Quanification (0.5 ng/mL))”.

Q: What does the source list for `COc1cc(CCN2C(=O)c3c(C)ccc(C)c3C2=O)c(OC)cc1Br` [Example 34, 2-(4-bromo-2,5-dimethoxyphenethyl)-4,7-dimethylisoindoline-1,3-dione]?
A: Plasma Concentrations of metabolite 2C-B Following Oral Dosing [13]: BLQ (BLQ: Below Lower Limit of Quanification (0.5 ng/mL)); Plasma Concentrations of metabolite 2C-B Following Oral Dosing [14]: BLQ (BLQ: Below Lower Limit of Quanification (0.5 ng/mL)); Plasma Concentrations of metabolite 2C-B Following Oral Dosing [15]: BLQ (BLQ: Below Lower Limit of Quanification (0.5 ng/mL)); Plasma Concentrations of metabolite 2C-B Following Oral Dosing [16]: BLQ (BLQ: Below Lower Limit of Quanification (0.5 ng/mL)); Plasma Concentrations of metabolite 2C-B Following Oral Dosing [17]: BLQ (BLQ: Below Lower Limit of Quanification (0.5 ng/mL)); Plasma Concentrations of metabolite 2C-B Following Oral Dosing [18]: BLQ (BLQ: Below Lower Limit of Quanification (0.5 ng/mL)); Plasma Concentrations of metabolite 2C-B Following Oral Dosing [19]: BLQ (BLQ: Below Lower Limit of Quanification (0.5 ng/mL)); Plasma Concentrations of metabolite 2C-B Following Oral Dosing [20]: BLQ (BLQ: Below Lower Limit of Quanification (0.5 ng/mL)); Plasma Concentrations of metabolite 2C-B Following Oral Dosing [21]: BLQ (BLQ: Below Lower Limit of Quanification (0.5 ng/mL)); Plasma Concentrations of metabolite 2C-B Following Oral Dosing [22]: BLQ (BLQ: Below Lower Limit of Quanification (0.5 ng/mL)); Plasma Concentrations of metabolite 2C-B Following Oral Dosing [23]: BLQ (BLQ: Below Lower Limit of Quanification (0.5 ng/mL)); Plasma Concentrations of metabolite 2C-B Following Oral Dosing [24]: BLQ (BLQ: Below Lower Limit of Quanification (0.5 ng/mL))

Q: For `CCOC(=O)C1=C(C(=O)NCCc2cc(OC)c(Br)cc2OC)CCC1` [Example 36, Ethyl 2-((4-bromo-2,5-dimethoxyphenethyl)carbamoyl)cyclopent-1-ene-1-carboxylate], which “Plasma Concentrations” value [13] is on record?
A: Its value is “BLQ (BLQ: Below Lower Limit of Quanification (0.5 ng/mL))”.

Q: And the “Plasma Concentrations” value [14]?
A: Its value is “BLQ (BLQ: Below Lower Limit of Quanification (0.5 ng/mL))”.

Q: What about the “Plasma Concentrations” value [15] of the same molecule?
A: Its value is “BLQ (BLQ: Below Lower Limit of Quanification (0.5 ng/mL))”.

Q: And the “Plasma Concentrations” value [16]?
A: The value was “BLQ (BLQ: Below Lower Limit of Quanification (0.5 ng/mL))”.

Q: What about the “Plasma Concentrations” value [17] of the same molecule?
A: Its value is “BLQ (BLQ: Below Lower Limit of Quanification (0.5 ng/mL))”.

Q: What about the “Plasma Concentrations” value [18] of the same molecule?
A: The value was “BLQ (BLQ: Below Lower Limit of Quanification (0.5 ng/mL))”.

Q: And the “Plasma Concentrations” value [19]?
A: Its value is “BLQ (BLQ: Below Lower Limit of Quanification (0.5 ng/mL))”.

Q: What about the “Plasma Concentrations” value [20] of the same molecule?
A: Its value is “BLQ (BLQ: Below Lower Limit of Quanification (0.5 ng/mL))”.

Q: What about the “Plasma Concentrations” value [21] of the same molecule?
A: Its value is “BLQ (BLQ: Below Lower Limit of Quanification (0.5 ng/mL))”.

Q: What about the “Plasma Concentrations” value [22] of the same molecule?
A: Its value is “BLQ (BLQ: Below Lower Limit of Quanification (0.5 ng/mL))”.

Q: And the “Plasma Concentrations” value [23]?
A: The value was “BLQ (BLQ: Below Lower Limit of Quanification (0.5 ng/mL))”.

Q: What about the “Plasma Concentrations” value [24] of the same molecule?
A: The value was “BLQ (BLQ: Below Lower Limit of Quanification (0.5 ng/mL))”.
